# Source: patent US11369650B2, “Methods for reversing multiple resistance in animal cells” (priority 2004, dated 2022)
# Tests used:
# [1] = test system: U2OS cells; assay: Oncolytic assay with daunorubicine and dl520, crystal violet; type: cell-based, human; conditions: 40 ng/ml
# Method: (§1) In the practising of the oncolytic assays the following procedure was followed: 200,000 cells (HeLa and U2OS, respectively) were plated into each well of a 6 well plate. On the next day 40 ng/ml (final concentration) of daunorubicine were added. After 3 hours of incubation the cells were infected with 10 and 30 pfu dl520/cell, respectively. Subsequently, the cells were incubated in cytostatic free medium. After 3-5 days the cells were stained using crystal violet.
# [2] = test system: HeLa cells; assay: as above; type: cell-based; conditions: 40 ng/ml
# Method: as §1
# [3] = test system: U373 tumour cells; assay: Southern blot of dl520 replication after Irinotecan; type: cell-based; conditions: U373, 5 μM Irinotecan 24 h before 10 pfu/cell dl520
# Method: In order to determine the effect of Irinotecan on adenoviral replication 10^6 U373 tumour cells were plated in 10 cm^2 Petri dishes. In a first reaction 5 μM Irinotecan was added after 24 hours. After another 24 hours the cells were infected with 10 pfu/cell dl520. After incubation of 3 days without Irinotecan DNA was isolated in accordance with the procedure described in example 10.
# In a parallel reaction the thus prepared U373-cells were not pre-incubated with Irinotecan. After 48 hours of cultivating the cells without Irinotecan, they were infected with 10 pfu/cell dl520 and subsequently incubated without Irinotecan for another 3 days. DNA was isolated as described above.
# Subsequently […] were digested with restriction enzyme Kpn I and a Southern Blot analysis performed. A part of the adenoviral genome (position: 22734-24235) generated by means of PCR was used as a probe.
# [4] = test system: U373 cells; assay: Oncolysis of U373 cells by dl520 with Irinotecan and Trichostatin A, crystal violet; type: cell-based; conditions: U373, 2 μM Irinotecan
# Method: 200,000 U373 cells were plated in a 6 well plate. After 24 hours either 2 μM Irinotecan or only 1 μM Trichostatin A or 1 μM Irinotecan+0.5 μM Trichostatin were added to the medium. After 24 hours of incubation the cells were infected with 10, 20 and 30 pfu/cell dl520. After 3-5 days the analysis was performed using crystal violet staining. The assays were performed in duplicate.
# The further 6 well plates 2, 3 and 4 depicted in FIG. 22, herein also referred to as panels 2, 3 and 4, were basically treated in accordance with this scheme. The individual wells were inoculated with U373 cells as previously described and the cells cultivated therein. The wells were inoculated with 10, 20 or 30 pfu/cell dl520 in duplicate, whereby the difference between the three 6 well plates resided in the kind of cytostatics used. In panel 2 2 μM Irinotecan, in panel 3 […] and in panel 4 1 μM Irinotecan and 0.5 μM Trichostatin A was added to the individual plates.
# [5] = test system: U373 tumour cells; assay: Southern blot of dl520 replication after Trichostatin A; type: cell-based; conditions: U373, 0.25, 0.5 and 0.75 μM Trichostatin A, 10 pfu/cell dl520
# Method: In order to test the effect of Trichostatin A on adenoviral replication, 10^6 U373 tumour cells were plated in 10 cm^2 Petri dishes. After 24 hours 0.25, 0.5 and 0.75 μM Trichostatin A was added. After another 24 hours the cells were infected with 10 pfu/cell dl520.
# After 3 days of incubation in medium without Trichostatin DNA was isolated. Subsequently 2 μg DNA were digested with restriction enzyme Kpn I and a Southern Blot analysis performed. A part of the adenoviral genome (position: 22734-24235) generated by means of PCR was used as a probe.
# [6] = test system: Coxsackievirus-adenovirus-receptor (CAR) on U373 cells; assay: FACS analysis of CAR expression; type: cell-based; conditions: U373, 1 μM Trichostatin, 24 hours
# Method: 200,000 U373 cells were plated in 6 well plates. After 24 hours the cells were cultivated with 1 μM Trichostatin for 24 hours. After another 24 hours the cells were isolated. Subsequently, analysis of CAR expression was performed according to a standard protocol using Facs-analysis and the primary antibody anti-CAR clone RmcB from the company Upstate, and a rabbit-anti-mouse FITC as secondary antibody (company DAKO).
structure (smiles),measurement,setting,value
COc1cccc2c1C(=O)c1c(O)c3c(c(O)c1C2=O)C[C@@](O)(C(C)=O)C[C@@H]3O[C@H]1C[C@H](N)[C@H](O)[C@H](C)O1 [daunorubicine],effect of daunorubicine on replication of dl520,[1],induces the replication of dl520
same,effect of daunorubicine on replication of dl520,[2],induces the replication of dl520
CCc1c2c(nc3ccc(OC(=O)N4CCC(N5CCCCC5)CC4)cc13)-c1cc3c(c(=O)n1C2)COC(=O)[C@]3(O)CC [Irinotecan],adenoviral (dl520) replication compared to untreated control,[3],significantly increased
same,dl520 titer at which the cells were lysed,[4],30 pfu/cell
CC(/C=C/C(=O)NO)=C\[C@@H](C)C(=O)c1ccc(N(C)C)cc1 [Trichostatin A],viral (dl520) replication compared to untreated controls,[5],significantly increased
same,CAR-positive cells,[6],56.2%
